Experimental findings from PubChem BioAssay (NCI) are described below.

Assay in all cases: inhibition of tumour cell growth, NCI panel, 48 h
Test [1] has as its system DU-145 prostate.
The subject of test [2] is HCT-116 colon.
The test system of test [3] is HOP-92 NSCLC.
Test [4] relates to MALME-3M melanoma.
Test [5] relates to MDA-MB-435.
For test [6], the system named is NCI-H226 lung.
The subject of test [7] is NCI-H460 lung.
For test [8], the system named is OVCAR-8 ovarian.
Test [9] relates to PC-3 prostate.
Test [10] deals with SF-295 CNS.
Test [11] relates to SK-MEL-28 melanoma.
The test system of test [12] is SW-620 colon.
The subject of test [13] is SR leukemia.

Each structure is given as a SMILES string.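 Grown in 96-well plates, cells were treated for 48 hours with each compound at five concentrations. Insufficient inhibition: endpoint recorded as highest concentration tested. TGI is the concentration that stops growth completely.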

Take `CC/C=C/C(/C=C/C[C@]1(CC)C[C@H](CC)[C@H](CC(=O)O)OO1)CC` (stereo partly drawn): the TGI in test [1] stood at 4.36 µM; in test [2], 6.81 µM; in [3] it was 4.72 µM; in [4], 29.3 µM; in test [5] it was 4.46 µM; in [6], 57.9 µM. In addition, the TGI is 4.25 µM in test [7]; 13.1 µM in [8]; 3.69 µM in [9]; 5.02 µM in test [10]; 7.41 µM in test [11]; 5.1 µM in test [12].

For `Cc1ccccc1NC(=O)CSc1nnc(Cc2ccccc2)o1`, the TGI in [2], in test [4], in test [6], in test [7], in [8] and in [10] was more than 100 µM each time. The same compound came in with a TGI in test [11] of more than 100 µM.

For the compound `CSc1nc(C)c(CCCl)c(Cl)n1`, the TGI in [1], in test [2], in [4], in [5], in [7] and in [8] was more than 100 µM throughout. Moreover, the TGI in test [9], in test [10], in test [11] and in test [12] was more than 100 µM each time.

For `COc1nc(OC)nc(Sc2ccc(Sc3ccc(Sc4nc(OC)nc(OC)n4)cc3)cc2)n1`, the TGI in [2], in [3], in [4], in test [6], in test [7] and in [8] was more than 100 µM each time. In addition, the TGI in test [10], in [11], in [13] and in test [12] was more than 100 µM in each case.

For `CCCOP(=S)(N1CC1)N1CC1`, the TGI in test [2], in test [3], in [4], in [6], in test [7] and in [8] was more than 100 µM each time. The TGI in test [10], in test [11], in [13] and in test [12] was more than 100 µM throughout.

As for `CSc1nc(-c2ccc(Cl)cc2)c(C#N)c(=O)[nH]1`, the TGI in [1] was more than 100 µM; in test [2] it was more than 100 µM; in [3], 97.7 µM; in [5] it was more than 100 µM; in test [6], more than 100 µM; in test [7] it was more than 100 µM. The TGI in test [8], in test [9], in test [10], in [11] and in test [12] was more than 100 µM each time.

As for `Cn1nc(C(=O)N2CC(CCl)c3c2cc([N+](=O)[O-])c2ccccc32)cc1NC(=O)Nc1cc(C(=O)N2CC(CCl)c3c2cc([N+](=O)[O-])c2ccccc32)nn1C` (stereo not drawn), the TGI in test [1], in test [2], in [3], in [4], in test [5] and in [6] was more than 100 µM in each case. The TGI in test [7], in test [9], in test [10] and in test [11] was more than 100 µM throughout.

Regarding `Cc1ccc(F)c2c(=O)cc(-c3ccccc3)[nH]c12`, the TGI in test [2], in test [3], in [4], in test [6], in [7] and in [8] was more than 100 µM in each case. The TGI in [10], in test [11], in test [13] and in test [12] was more than 100 µM throughout.

Regarding `CC[C@H](C)[C@H]1NC(=O)[C@@H](NC(=O)[C@@H](CC(C)C)N(C)C(=O)C2CCCN2C(=O)[C@H](C)O)[C@@H](C)OC(=O)[C@H](Cc2ccccc2)N(C)C(=O)[C@@H]2CCCN2C(=O)[C@H](CC(C)C)NC(=O)[C@@H](C)C(=O)[C@H](C(C)C)OC(=O)C[C@@H]1O` (stereo partly drawn), the TGI is 0.00642 µM in test [2]; 0.0213 µM in test [4]; 0.00705 µM in test [6]; less than 0.00625 µM in [7]; 0.0461 µM in [8]; 0.119 µM in [9]. For the same compound, the TGI in [10] is 0.0134 µM; in [11], 0.00828 µM; in [12], more than 62.5 µM.

As to `CN(C)Cc1[nH]c2ccccc2c1C(=O)c1ccccc1`, the TGI in test [2], in [3], in test [4], in test [6], in [7] and in test [8] was more than 100 µM throughout. Moreover, the TGI in test [10], in [11], in [13] and in test [12] was more than 100 µM throughout.

For `COc1ccc(/C=C(\Cl)c2ccc(OC)cc2)cc1`, the TGI in test [2], in test [3], in [4], in test [6], in test [7] and in test [8] was more than 100 µM throughout. Moreover, the TGI in test [11], in test [13] and in test [12] was more than 100 µM throughout.

For the compound `CC(=O)C1=NN(c2ccccc2)C2(S1)SC(c1ccccc1)(c1ccccc1)c1ccccc12` (stereo not drawn), the TGI in test [2] was more than 100 µM; in [3], 46.1 µM; in test [4], more than 100 µM; in test [6], more than 100 µM; in test [7], more than 100 µM; in test [8] it was more than 100 µM. Besides, the TGI in test [10], in [11], in test [13] and in test [12] was more than 100 µM throughout.

As for `CC1=C(C(=O)NC(C)(C)C)CC(C(=O)NC(C)(C)C)C(C)N1` (stereo not drawn), the TGI in test [1], in test [2], in test [3], in test [5], in [6] and in [7] was more than 100 µM in each case. Moreover, the TGI in test [8], in test [9], in test [10] and in test [12] was more than 100 µM throughout.

For the compound `COc1ccc(C2C(Cl)C(=O)N2NC(=O)c2ccccc2O)cc1OC` (stereo not drawn), the TGI in test [2], in test [4], in test [6], in [7], in test [8] and in test [10] was more than 100 µM throughout. This compound returned a TGI in test [11] of more than 100 µM.

Turning to `CC#Cc1c(C#CC)c(OC)c2c(c1OC)C(=O)c1ccccc1C2=O`, the TGI in [2] was 72.6 µM; in test [4], more than 100 µM; in [7] it was more than 100 µM; in test [8], more than 100 µM; in test [10] it was 39.1 µM; in test [11], more than 100 µM. The TGI in test [13] and in [12] was more than 100 µM each time.

With `O=C1c2ccccc2C(=O)c2c(O)c(NCCNCCO)cc(O)c21`, the TGI in [2] was 11.9 µM; in test [3], 24.6 µM; in [4], 26.5 µM; in test [6], 14.9 µM; in test [7], 12.3 µM; in [8] it was 12.6 µM. The TGI came out at 22.2 µM in [10], 16.6 µM in test [11], 9.04 µM in [13] and 12 µM in test [12].

As for `O=C1Cc2ccccc2CCc2ccsc21`, the TGI in test [2], in test [3], in test [4], in test [6], in test [7] and in test [8] was more than 100 µM in each case. Besides, the TGI in test [10], in test [11], in test [13] and in [12] was more than 100 µM in each case.

For `CC1(C)N=C(Oc2ccccc2)n2nccc2N1`, the TGI in [2], in test [3], in [4], in test [6], in test [7] and in test [10] was more than 100 µM in each case. Besides, the TGI in test [11], in [13] and in test [12] was more than 100 µM throughout.

Consider `COc1ccccc1Cn1[nH]c(=O)c2cc([N+](=O)[O-])ccc21`, for which the TGI in test [1] was more than 100 µM; in [2], more than 100 µM; in [3], 93.4 µM; in test [4], more than 100 µM; in test [5] it was more than 100 µM; in [6], more than 100 µM. Also, the TGI in test [7], in test [8], in test [11], in test [13] and in test [12] was more than 100 µM in each case.

For the compound `c1cc(C[S+]2CCCC2)oc1C[S+]1CCCC1`, the TGI in test [1], in test [2], in [4], in test [5], in test [7] and in [8] was more than 100 µM throughout. The TGI in test [9], in test [10], in test [11] and in test [12] was more than 100 µM each time.
